Measured values: ChEMBL document CHEMBL3286248, “Easily accessible polycyclic amines that inhibit the wild-type and amantadine-resistant mutants of the M2 channel of influenza A virus” (J Med Chem, 2014)
Structures can show the parent of a compound that is named as a salt. Calls of active or inactive are those of the source. No cut-off for these calls is given here.

Experiments:
Influenza A virus [1] = conditions: mdck
Influenza A virus [2] = conditions: mdck; remark: listed apart in the source
MDCK [3] = format: functional, cell-based; conditions: Influenza A virus (A/Hong Kong/7/1987(H3N2)), 0.5 to 2 uM
MDCK [4] = experiment: Antiviral activity against Influenza A virus (A/HK/7/87(H3N2)) harboring wild type M2 channel infected in MDCK cells assessed as reduction in plaque size at 0.5 uM after 72 hrs by crystal violet staining; format: functional, cell-based; conditions: Influenza A virus (A/Hong Kong/7/1987(H3N2))
MDCK [5] = experiment: Antiviral activity against Influenza A virus (A/HK/7/87(H3N2)) harboring wild type M2 channel infected in MDCK cells assessed as reduction in plaque number at 0.5 uM after 72 hrs by crystal violet staining; format: functional, cell-based; conditions: Influenza A virus (A/Hong Kong/7/1987(H3N2))
[6] = system: Matrix protein 2 (Influenza A virus (A/Udorn/307/1972(H3N2))), P0DOF8 [V27A]; conditions: Influenza A virus (A/udorn/1972(H3N2))

## CC12CC34CN(C(=N)N)CC35CC1(C)C(C)(C5)C2(C)C4 (stereo unspecified)
Influenza A virus [1]
  EC50: > 100 µM
Influenza A virus [2]
  EC50: > 100 µM

## C1=CC2C1C1C=CC2C2CNCC12 (stereo unspecified)
Influenza A virus [1]
  EC50: 1.3 µM
MDCK [3]
  inhibition: Active
Influenza A virus [2]
  EC50: < 0.8 µM

## CC(N)C12CC3CC(CC(C3)C1)C2 (stereo unspecified) [RIMANTADINE HYDROCHLORIDE]
Influenza A virus [1]
  EC50: 7.6 µM
Influenza A virus [2]
  EC50: 5.1 µM

## C1CC2C1C1CCC2C2CNCC12 (stereo unspecified)
Influenza A virus [1]
  EC50: > 100 µM
MDCK [4]
  Activity: Active
Influenza A virus [2]
  EC50: > 100 µM
MDCK [5]
  Activity: Active

## C1=CC2C3CC3C1C1CN(C3CCNCC3)CC21 (stereo unspecified)
Influenza A virus [1]
  EC50: ≤ 0.8 µM
Influenza A virus [2]
  EC50: < 0.8 µM
[6]
  inhibition: inactive

## C1CC2C3CNCC3C1C1CC21 (stereo unspecified)
Influenza A virus [1]
  EC50: > 100 µM
Influenza A virus [2]
  EC50: > 100 µM

## N=C(N)N1CC2C3C=CC(C4CC34)C2C1 (stereo unspecified)
Influenza A virus [1]
  EC50: > 100 µM
Influenza A virus [2]
  EC50: > 100 µM

## C1CC(N2CC3C4CCC(C5CC45)C3C2)CCN1 (stereo unspecified)
Influenza A virus [1]
  EC50: > 100 µM
Influenza A virus [2]
  EC50: > 100 µM
[6]
  inhibition: inactive

## NC12CC3CC(CC(C3)C1)C2 [AMANTADINE]
Influenza A virus [1]
  EC50: 30 µM

## CC12CC34CNCC35CC1(C)C(C)(C5)C2(C)C4 (stereo unspecified)
Influenza A virus [1]
  EC50: 1.8 µM
MDCK [3]
  inhibition: Active
Influenza A virus [2]
  EC50: 3 µM

## N=C(N)N1CC2C3C=CC(C4C=CC43)C2C1 (stereo unspecified)
Influenza A virus [1]
  EC50: > 100 µM
MDCK [3]
  inhibition: Active
Influenza A virus [2]
  EC50: > 100 µM

## C1=CC2C3CNCC3C1C1CC21 (stereo unspecified)
Influenza A virus [1]
  EC50: > 100 µM
Influenza A virus [2]
  EC50: > 100 µM

## N=C(N)N1CC2C3CCC(C4CCC43)C2C1 (stereo unspecified)
Influenza A virus [1]
  EC50: > 100 µM
MDCK [4]
  Activity: Active
Influenza A virus [2]
  EC50: > 100 µM
MDCK [5]
  Activity: Active

## N=C(N)N1CC2C3CCC(C4CC34)C2C1 (stereo unspecified)
Influenza A virus [1]
  EC50: > 100 µM
Influenza A virus [2]
  EC50: > 100 µM
